Laboratory results reported in US20020065219A1, “Water soluble thiazolyl peptide derivatives” (priority 2000, published 2002).
Converted amounts (≈) assume the structure as drawn. Like-named read-outs stand apart in the source and are kept apart here.

Experiments:
Assay in all cases: MIC, broth micro dilution assay (NCCLS)
Assay type in all cases: cell-based
[1] = test system: Staphylococcus aureus A15090; conditions: for MIC: Staphylococcus aureus, A15090, 18 h, read-out: MIC (μg/mL) against Staphylococcus aureus A15090
[2] = test system: Streptococcus pneumoniae A28272; conditions: for MIC: Streptococcus pneumoniae, A28272, 18 h, read-out: MIC (μg/mL) against Streptococcus pneumoniae A28272
[3] = test system: Enterococcus faecalis A20688; conditions: for MIC: Enterococcus faecalis, A20688, 18 h, read-out: MIC (μg/mL) against Enterococcus faecalis A20688
[4] = Mueller-Hinton medium, 35° C., 18 hours
[5] = 50% Mueller-Hinton medium and 50% Todd Hewitt medium, 35° C., 18 hours

Structure (SMILES)	MIC (μg/mL) against Staphylococcus aureus A15090 [1, 4]	MIC (μg/mL) against Streptococcus pneumoniae A28272 [2, 5]	MIC (μg/mL) against Enterococcus faecalis A20688 [3, 4]	further results
CO/C(C)=C1/NC(=O)C(C(C)O)NC(=O)c2csc(n2)-c2cc(O)c(-c3nc(C(=O)NC(CSCC(=O)O)C(N)=O)cs3)nc2-c2csc(n2)C2COC(=O)c3c4c5c(cccc5n3O)COC(=O)C(O[C@H]3C[C@](C)(O)[C@H](N(C)C)[C@H](C)O3)C(OC4)C(NC(=O)c3csc1n3)c1nc(cs1)C(=O)N2 (stereo partly drawn) [Example 4]				MIC [1]: 2 µg/mL (≈ 1.31 µM); MIC [2]: 0.125 µg/mL (≈ 0.0817 µM); MIC [3]: 2 µg/mL (≈ 1.31 µM)
CO/C(C)=C1/NC(=O)C(C(C)O)NC(=O)c2csc(n2)-c2cc(O)c(-c3nc(C(=O)NC(CSCCN(C)C)C(N)=O)cs3)nc2-c2csc(n2)C2COC(=O)c3c4c5c(cccc5n3O)COC(=O)C(O[C@H]3C[C@](C)(O)[C@H](N(C)C)[C@H](C)O3)C(OC4)C(NC(=O)c3csc1n3)c1nc(cs1)C(=O)N2 (stereo partly drawn) [Example 10]				MIC [1]: 0.125 µg/mL (≈ 0.081 µM); MIC [2]: 0.015 µg/mL (≈ 0.00972 µM); MIC [3]: 0.25 µg/mL (≈ 0.162 µM)
CO/C(C)=C1/NC(=O)C(C(C)O)NC(=O)c2csc(n2)-c2cc(O)c(-c3nc(C(=O)NC(CNCCCCN)C(N)=O)cs3)nc2-c2csc(n2)C2COC(=O)c3c4c5c(cccc5n3O)COC(=O)C(O[C@H]3C[C@](C)(O)[C@H](N(C)C)[C@H](C)O3)C(OC4)C(NC(=O)c3csc1n3)c1nc(cs1)C(=O)N2 (stereo partly drawn) [Example 11]	2.0 µg/mL (≈ 1.31 µM)	0.5 µg/mL (≈ 0.328 µM)	8.0 µg/mL (≈ 5.24 µM)	
CO/C(C)=C1/NC(=O)C(C(C)O)NC(=O)c2csc(n2)-c2cc(O)c(-c3nc(C(=O)NC(CNCCN(CCN)CCN)C(N)=O)cs3)nc2-c2csc(n2)C2COC(=O)c3c4c5c(cccc5n3O)COC(=O)C(O[C@H]3C[C@](C)(O)[C@H](N(C)C)[C@H](C)O3)C(OC4)C(NC(=O)c3csc1n3)c1nc(cs1)C(=O)N2 (stereo partly drawn) [Example 12]	2.0 µg/mL (≈ 1.26 µM)	0.5 µg/mL (≈ 0.316 µM)	4.0 µg/mL (≈ 2.53 µM)	
CO/C(C)=C1/NC(=O)C(C(C)O)NC(=O)c2csc(n2)-c2cc(O)c(-c3nc(C(=O)NC(CN4CCCC4)C(N)=O)cs3)nc2-c2csc(n2)C2COC(=O)c3c4c5c(cccc5n3O)COC(=O)C(O[C@H]3C[C@](C)(O)[C@H](N(C)C)[C@H](C)O3)C(OC4)C(NC(=O)c3csc1n3)c1nc(cs1)C(=O)N2 (stereo partly drawn) [Example 15]				MIC (μg/mL) against Staphylococcus aureus A15090 [1]: 0.06 µg/mL (≈ 0.0398 µM); MIC (μg/mL) against Streptococcus pneumoniae A28272 [2]: 0.015 µg/mL (≈ 0.00994 µM); MIC (μg/mL) against Enterococcus faecalis A20688 [3]: 0.5 µg/mL (≈ 0.331 µM)
CO/C(C)=C1/NC(=O)C(C(C)O)NC(=O)c2csc(n2)-c2cc(O)c(-c3nc(C(=O)NC(CNCCNC(C)=O)C(N)=O)cs3)nc2-c2csc(n2)C2COC(=O)c3c4c5c(cccc5n3O)COC(=O)C(O[C@H]3C[C@](C)(O)[C@H](N(C)C)[C@H](C)O3)C(OC4)C(NC(=O)c3csc1n3)c1nc(cs1)C(=O)N2 (stereo partly drawn) [Example 16]	1.0 µg/mL (≈ 0.649 µM)	0.125 µg/mL (≈ 0.0812 µM)	4.0 µg/mL (≈ 2.6 µM)	
CO/C(C)=C1/NC(=O)C(C(C)O)NC(=O)c2csc(n2)-c2cc(O)c(-c3nc(C(=O)NC(CNCCN(C)C)C(N)=O)cs3)nc2-c2csc(n2)C2COC(=O)c3c4c5c(cccc5n3O)COC(=O)C(O[C@H]3C[C@](C)(O)[C@H](N(C)C)[C@H](C)O3)C(OC4)C(NC(=O)c3csc1n3)c1nc(cs1)C(=O)N2 (stereo partly drawn) [Example 17]	2.0 µg/mL (≈ 1.31 µM)	0.03 µg/mL (≈ 0.0197 µM)	4.0 µg/mL (≈ 2.62 µM)	
CO/C(C)=C1/NC(=O)C(C(C)O)NC(=O)c2csc(n2)-c2cc(O)c(-c3nc(C(=O)NC(CN(C)CCc4ccccn4)C(N)=O)cs3)nc2-c2csc(n2)C2COC(=O)c3c4c5c(cccc5n3O)COC(=O)C(O[C@H]3C[C@](C)(O)[C@H](N(C)C)[C@H](C)O3)C(OC4)C(NC(=O)c3csc1n3)c1nc(cs1)C(=O)N2 (stereo partly drawn) [Example 20]	0.125 µg/mL (≈ 0.0794 µM)	0.005 µg/mL (≈ 0.00318 µM)	0.25 µg/mL (≈ 0.159 µM)	
CO/C(C)=C1/NC(=O)C(C(C)O)NC(=O)c2csc(n2)-c2cc(O)c(-c3nc(C(=O)NC(CN4CCN(C(C)=O)CC4)C(N)=O)cs3)nc2-c2csc(n2)C2COC(=O)c3c4c5c(cccc5n3O)COC(=O)C(O[C@H]3C[C@](C)(O)[C@H](N(C)C)[C@H](C)O3)C(OC4)C(NC(=O)c3csc1n3)c1nc(cs1)C(=O)N2 (stereo partly drawn) [Example 21]	0.5 µg/mL (≈ 0.319 µM)	0.03 µg/mL (≈ 0.0192 µM)	2.0 µg/mL (≈ 1.28 µM)	
CO/C(C)=C1/NC(=O)C(C(C)O)NC(=O)c2csc(n2)-c2cc(O)c(-c3nc(C(=O)NC(CN4CCN(c5ncccn5)CC4)C(N)=O)cs3)nc2-c2csc(n2)C2COC(=O)c3c4c5c(cccc5n3O)COC(=O)C(O[C@H]3C[C@](C)(O)[C@H](N(C)C)[C@H](C)O3)C(OC4)C(NC(=O)c3csc1n3)c1nc(cs1)C(=O)N2 (stereo partly drawn) [Example 22]				MIC (μg/mL) against Staphylococcus aureus A15090 [1]: 0.5 µg/mL (≈ 0.312 µM); MIC (μg/mL) against Streptococcus pneumoniae A28272 [2]: 0.0005 µg/mL (≈ 0.000312 µM); MIC (μg/mL) against Enterococcus faecalis A20688 [3]: 1.0 µg/mL (≈ 0.624 µM)
CNCCN(C)CC(NC(=O)c1csc(-c2nc3c(cc2O)-c2nc(cs2)C(=O)NC(C(C)O)C(=O)N/C(=C(\C)OC)c2nc(cs2)C(=O)NC2c4nc(cs4)C(=O)NC(COC(=O)c4c5c6c(cccc6n4O)COC(=O)C(O[C@H]4C[C@](C)(O)[C@H](N(C)C)[C@H](C)O4)C2OC5)c2nc-3cs2)n1)C(N)=O (stereo partly drawn) [Example 23]	0.06 µg/mL (≈ 0.0393 µM)	0.001 µg/mL (≈ 0.000655 µM)	0.5 µg/mL (≈ 0.328 µM)	
CCN(CC)CCN(CCN(CC)CC)CC(NC(=O)c1csc(-c2nc3c(cc2O)-c2nc(cs2)C(=O)NC(C(C)O)C(=O)N/C(=C(\C)OC)c2nc(cs2)C(=O)NC2c4nc(cs4)C(=O)NC(COC(=O)c4c5c6c(cccc6n4O)COC(=O)C(O[C@H]4C[C@](C)(O)[C@H](N(C)C)[C@H](C)O4)C2OC5)c2nc-3cs2)n1)C(N)=O (stereo partly drawn) [Example 24]				MIC (μg/mL) against Staphylococcus aureus A15090 [1]: 1.0 µg/mL (≈ 0.605 µM); MIC (μg/mL) against Streptococcus pneumoniae A28272 [2]: 0.007 µg/mL (≈ 0.00423 µM); MIC (μg/mL) against Enterococcus faecalis A20688 [3]: 2.0 µg/mL (≈ 1.21 µM)
CCNCCN(CC)CC(NC(=O)c1csc(-c2nc3c(cc2O)-c2nc(cs2)C(=O)NC(C(C)O)C(=O)N/C(=C(\C)OC)c2nc(cs2)C(=O)NC2c4nc(cs4)C(=O)NC(COC(=O)c4c5c6c(cccc6n4O)COC(=O)C(O[C@H]4C[C@](C)(O)[C@H](N(C)C)[C@H](C)O4)C2OC5)c2nc-3cs2)n1)C(N)=O (stereo partly drawn) [Example 25]	1.0 µg/mL (≈ 0.644 µM)	0.0005 µg/mL (≈ 0.000322 µM)	2.0 µg/mL (≈ 1.29 µM)	
CO/C(C)=C1/NC(=O)C(C(C)O)NC(=O)c2csc(n2)-c2cc(O)c(-c3nc(C(=O)NC(CN(CCCN(C)C)CCCN(C)C)C(N)=O)cs3)nc2-c2csc(n2)C2COC(=O)c3c4c5c(cccc5n3O)COC(=O)C(O[C@H]3C[C@](C)(O)[C@H](N(C)C)[C@H](C)O3)C(OC4)C(NC(=O)c3csc1n3)c1nc(cs1)C(=O)N2 (stereo partly drawn) [Example 27]	4.0 µg/mL (≈ 2.46 µM)	0.0005 µg/mL (≈ 0.000308 µM)	2.0 µg/mL (≈ 1.23 µM)	
CNCCNCC(NC(=O)c1csc(-c2nc3c(cc2O)-c2nc(cs2)C(=O)NC(C(C)O)C(=O)N/C(=C(\C)OC)c2nc(cs2)C(=O)NC2c4nc(cs4)C(=O)NC(COC(=O)c4c5c6c(cccc6n4O)COC(=O)C(O[C@H]4C[C@](C)(O)[C@H](N(C)C)[C@H](C)O4)C2OC5)c2nc-3cs2)n1)C(N)=O (stereo partly drawn) [Example 28]				MIC (μg/mL) against Staphylococcus aureus A15090 [1]: 0.25 µg/mL (≈ 0.165 µM); MIC (μg/mL) against Streptococcus pneumoniae A28272 [2]: 0.03 µg/mL (≈ 0.0198 µM); MIC (μg/mL) against Enterococcus faecalis A20688 [3]: 0.5 µg/mL (≈ 0.331 µM)
CO/C(C)=C1/NC(=O)C(C(C)O)NC(=O)c2csc(n2)-c2cc(O)c(-c3nc(C(=O)NC(CN(C)Cc4ccccc4O[C@@H]4O[C@H](CO)[C@@H](O)[C@H](O)[C@H]4O)C(N)=O)cs3)nc2-c2csc(n2)C2COC(=O)c3c4c5c(cccc5n3O)COC(=O)C(O[C@H]3C[C@](C)(O)[C@H](N(C)C)[C@H](C)O3)C(OC4)C(NC(=O)c3csc1n3)c1nc(cs1)C(=O)N2 (stereo partly drawn) [Example 29]	0.06 µg/mL (≈ 0.0345 µM)	0.015 µg/mL (≈ 0.00864 µM)	0.25 µg/mL (≈ 0.144 µM)	
CO/C(C)=C1/NC(=O)C(C(C)O)NC(=O)c2csc(n2)-c2cc(O)c(-c3nc(C(=O)NC(CN(C)CCN4CCCCC4)C(N)=O)cs3)nc2-c2csc(n2)C2COC(=O)c3c4c5c(cccc5n3O)COC(=O)C(O[C@H]3C[C@](C)(O)[C@H](N(C)C)[C@H](C)O3)C(OC4)C(NC(=O)c3csc1n3)c1nc(cs1)C(=O)N2 (stereo partly drawn) [Example 30]				MIC (μg/mL) against Staphylococcus aureus A15090 [1]: 0.125 µg/mL (≈ 0.0791 µM); MIC (μg/mL) against Streptococcus pneumoniae A28272 [2]: 0.03 µg/mL (≈ 0.019 µM); MIC (μg/mL) against Enterococcus faecalis A20688 [3]: 1.0 µg/mL (≈ 0.633 µM)
CO/C(C)=C1/NC(=O)C(C(C)O)NC(=O)c2csc(n2)-c2cc(O)c(-c3nc(C(=O)NC(CN(C)CC(O)C(O)C(O)C(O)CO)C(N)=O)cs3)nc2-c2csc(n2)C2COC(=O)c3c4c5c(cccc5n3O)COC(=O)C(O[C@H]3C[C@](C)(O)[C@H](N(C)C)[C@H](C)O3)C(OC4)C(NC(=O)c3csc1n3)c1nc(cs1)C(=O)N2 (stereo partly drawn) [Example 31]	0.125 µg/mL (≈ 0.0766 µM)	0.125 µg/mL (≈ 0.0766 µM)	1.0 µg/mL (≈ 0.612 µM)	
